US7144992B2, “Synergistic antimicrobial compositions and methods for reducing biofilm formation” (Kane Biotech Inc., priority 2004, dated 2006)

Tests used:
[1] = Solubility; details: for solubility in organic solvents: DMSO, methanol, acetone and acetonitrile
[2] = test system: thioredoxin reductase; details: enzyme crosslinked with the thiol-specific reagent; Donna et al., Prot. Sci. 7:369–375, 1998; cited from earlier work

SMILES | solubility in organic solvents [1] | solubility in water [1] | decrease in thioredoxin reductase activity [2] [%]
O=C1C=CC(=O)N1c1ccc2ccc3cccc4ccc1c2c34 [PyrM, N-(1-pyrenyl) maleimide] | soluble in organic solvents | not soluble in water | 
O=C1C=CC(=O)N1c1ccccc1N1C(=O)C=CC1=O [oPDM, N,N′-(1,2-phenylene) dimaleimide] | soluble in organic solvents | not soluble in water | 95
